Measured values reported in PubChem BioAssay AID2060335 (Molecular Pharmacology Branch, DTP, NCI, 2025).

Tested on: DU-145 multicell spheroids with HUVEC/MSC, viability
Experiment: Anticancer human tumor DU-145 cell line growth inhibition [IpAb];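 further: spheroids exposed to agents for seven days before measurement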;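 on viability, T/C: percent of DMSO vehicle control viability so 100% = untreated level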
Settings: for IC50: curve of first compound; for viability, T/C: stronger effect = lower value
Summary of the method: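 Spheroids of 60% malignant cells, 25% HUVEC and 15% MSC were exposed to targeted agents combined with ipatasertib or abemaciclib. Doses started at or near clinical Cmax (10 microM when unknown) and fell in half-log steps.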

[1] = second compound 0.01 µM, first compound 0.00949 µM
[2] = second compound 0.01 µM, first compound 0.03 µM
[3] = second compound 0.01 µM, first compound 0.0949 µM
[4] = second compound 0.01 µM, first compound 0.3 µM
[5] = second compound 0.0316 µM, first compound 0.00949 µM
[6] = second compound 0.0316 µM, first compound 0.03 µM
[7] = second compound 0.0316 µM, first compound 0.0949 µM
[8] = second compound 0.0316 µM, first compound 0.3 µM
[9] = second compound 0.1 µM, first compound 0.00949 µM
[10] = second compound 0.1 µM, first compound 0.03 µM
[11] = second compound 0.1 µM, first compound 0.0949 µM
[12] = second compound 0.1 µM, first compound 0.3 µM
[13] = second compound 0.316 µM, first compound 0.00949 µM
[14] = second compound 0.316 µM, first compound 0.03 µM
[15] = second compound 0.316 µM, first compound 0.0949 µM
[16] = second compound 0.316 µM, first compound 0.3 µM
[17] = second compound 1 µM, first compound 0.00949 µM
[18] = second compound 1 µM, first compound 0.03 µM
[19] = second compound 1 µM, first compound 0.0949 µM
[20] = second compound 1 µM, first compound 0.3 µM

SMILES	IC50 (second compound 0.01 µM) [nM]	IC50 (second compound 0.0316 µM) [nM]	IC50 (second compound 0.1 µM) [nM]	IC50 (second compound 0.316 µM) [nM]	IC50 (second compound 1 µM) [nM]	viability, T/C [1] [%]	viability, T/C [2] [%]	viability, T/C [3] [%]	viability, T/C [4] [%]	viability, T/C [5] [%]	viability, T/C [6] [%]	viability, T/C [7] [%]	viability, T/C [8] [%]	viability, T/C [9] [%]	viability, T/C [10] [%]	viability, T/C [11] [%]	viability, T/C [12] [%]	viability, T/C [13] [%]	viability, T/C [14] [%]	viability, T/C [15] [%]	further results
CC(=O)c1c(C)c2cnc(Nc3ccc(N4CCNCC4)cn3)nc2n(C2CCCC2)c1=O + CCN1CCN(Cc2ccc(Nc3ncc(F)c(-c4cc(F)c5nc(C)n(C(C)C)c5c4)n3)nc2)CC1	> 300	> 300	> 300	> 300	> 300	87.2	90.4	90.2	84.8	90	85.4	83.4	80.9	77.9	76.9	73.4	76.7	75.5	75	71.3	viability, T/C (second compound 0.01 µM, first compound 0.000949 µM): 88.5%; viability, T/C (second compound 0.01 µM, first compound 0.003 µM): 90.5%; viability, T/C (second compound 0.0316 µM, first compound 0.000949 µM): 93.7%; viability, T/C (second compound 0.0316 µM, first compound 0.003 µM): 84.9%; viability, T/C (second compound 0.1 µM, first compound 0.000949 µM): 78.6%; viability, T/C (second compound 0.1 µM, first compound 0.003 µM): 76.9%; viability, T/C (second compound 0.316 µM, first compound 0.000949 µM): 74.5%; viability, T/C (second compound 0.316 µM, first compound 0.003 µM): 72%; viability, T/C [16]: 66.6%; viability, T/C (second compound 1 µM, first compound 0.000949 µM): 58.9%; viability, T/C (second compound 1 µM, first compound 0.003 µM): 61.2%; viability, T/C [17]: 61.6%; viability, T/C [18]: 60.4%; viability, T/C [19]: 58%; viability, T/C [20]: 60.2%
CC(C)(C)c1cnc(CSc2cnc(NC(=O)C3CCNCC3)s2)o1 + CCN1CCN(Cc2ccc(Nc3ncc(F)c(-c4cc(F)c5nc(C)n(C(C)C)c5c4)n3)nc2)CC1	104	82.2	66.6	60.4	34.9	108	98.6	54	8.61	94.3	88.2	44.7	8.69	87.6	77.4	38.1	7.33	77.5	75.4	33.8	viability, T/C (second compound 0.01 µM, first compound 0.949 µM): 6.08%; viability, T/C (second compound 0.01 µM, first compound 3 µM): 5.15%; viability, T/C (second compound 0.0316 µM, first compound 0.949 µM): 5.54%; viability, T/C (second compound 0.0316 µM, first compound 3 µM): 5.3%; viability, T/C (second compound 0.1 µM, first compound 0.949 µM): 5.93%; viability, T/C (second compound 0.1 µM, first compound 3 µM): 4.44%; viability, T/C [16]: 7.83%; viability, T/C (second compound 0.316 µM, first compound 0.949 µM): 5.35%; viability, T/C (second compound 0.316 µM, first compound 3 µM): 4.86%; viability, T/C [17]: 67.8%; viability, T/C [18]: 55.7%; viability, T/C [19]: 12.7%; viability, T/C [20]: 6.89%; viability, T/C (second compound 1 µM, first compound 0.949 µM): 4.71%; viability, T/C (second compound 1 µM, first compound 3 µM): 4.63%
